From patent US7452997B2 (priority 2004, dated 2008)
Like-named read-outs stand apart in the source and are kept apart here.

Assays:
[1] = molecular target: T1, human CB1 receptor (Homo sapiens, UniProt P21554); experiment: biochemical; type: binding
T1 construct: expressed in transfected cells; host or cells: SK-N-MC cells, stably transfected with pcDNA3 CB-1 (human); semi-purified membrane pellet
In short: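 Radioligand binding was run at 30° C for 90 minutes, pH 7.5 Tris buffer containing 0.5 mg/mL fatty acid free BSA, on semi-purified membranes of stably transfected SK-N-MC cells. Filter-bound radioactivity was scintillation counted, with IC50 obtained by linear regression across compound concentrations.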

[2] = molecular target: T2, human CB2 receptor (Homo sapiens, UniProt P34972); experiment: Binding assay, cannabinoid CB2 receptor ([3H]-CP-55,940 displacement); details: Cannabinoid CB2 Receptor Binding IC50, human CB2 receptor, SK-N-MC cell membranes, radioligand CP-55,940 0.2 nM
T2 sequence (P34972 whole entry): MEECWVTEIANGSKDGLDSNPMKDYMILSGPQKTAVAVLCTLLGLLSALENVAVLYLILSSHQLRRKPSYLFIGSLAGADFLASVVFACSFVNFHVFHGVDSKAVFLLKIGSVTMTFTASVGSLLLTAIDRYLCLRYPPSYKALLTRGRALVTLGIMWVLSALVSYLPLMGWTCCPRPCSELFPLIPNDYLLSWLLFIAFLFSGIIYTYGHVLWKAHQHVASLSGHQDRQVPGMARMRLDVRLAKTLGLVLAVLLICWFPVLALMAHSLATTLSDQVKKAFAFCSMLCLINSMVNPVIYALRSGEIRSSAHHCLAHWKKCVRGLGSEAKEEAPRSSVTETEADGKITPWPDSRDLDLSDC
In short: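 Displacement of [3H]-CP-55,940 (0.2 nM) was measured over 90 min at 30 °C (pH 7.5 Tris/MgCl2/EDTA buffer with BSA), using semi-purified membranes of human CB2-transfected SK-N-MC cells. Bound counts collected on GF/C filters, 10 uM WIN 55,212 as nonspecific control; IC50 from varied concentrations.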

[3] = molecular target: T1, human CB1 receptor; experiment: Functional cell-based assay, CB1 receptor mediated change in CRE β-gal expression (agonist / inverse agonist)
Text: (§1) Functional Cell-Based Assay for CB1 or CB2 Agonist and Inverse Agonist Effects on Intra-Cellular Adenylate Cyclase Activity
(§2) The CB1 and CB2 receptors are G-protein coupled receptors (GPCR) which influence cell function via the Gi-protein. These receptors modulate the activity of intracellular adenylate cyclase which in turn produces the intracellular signal messenger cyclic-AMP (cAMP).
(§3) At baseline, or during non-ligand bound conditions, these receptors are constitutively active and tonically suppress adenylate cyclase activity. The binding of an agonists causes further receptor activation and produces additional suppression of adenylate cyclase activity. The binding of an inverse agonist inhibits the constitutive activity of the receptors and results in an increase in adenylate cyclase activity.
(§4) By monitoring intracellular adenylate cyclase activity, the ability of compounds to act as agonists or inverse agonists can be determined.
(§5) Test compounds were evaluated in SK-N-MC cells which, using standard transfection procedures, were stably transfected with human cDNA for pcDNA3-CRE β-gal and pcDNA3 CB1 receptor (human) or pcDNA3 CB2 receptor (human). By expressing CRE β-gal, the cells produced β-galactosidase in response to CRE promoter activation by cAMP. Cells expressing CRE β-gal and either the human CB1 or CB2 receptor will produce less β-galactosidase when treated with a CB1/CB2 agonist and will produce more β-galactosidase when treated with a CB1/CB2 inverse agonist.
(§6) The cells were grown in 96-well plates under standard cell culture conditions at 37° C. in a 5% CO2 atmosphere. After 3 days, the media was removed and a test compound in media (wherein the media was supplemented with 2 mM L-glutamine, […] sodium pyruvate, 0.1% low fatty acid FBS (fetal bovine serum) and antibiotics) was added to the cell. The plates were incubated for 30 minutes at 37° C. and the plate cells were then treated with forskolin over a 4-6 hour period, then washed and lysed. The β-galactosidase activity was quantitated using commercially available kit reagents (Promega Corp. Madison, Wis.) and a VMAX Plate Reader (Molecular Devices, Inc).
(§7) The change in β-galactosidase activity was determined by setting a vehicle treated cell's activity value at 100% and expressing the β-galactosidase activity measured in a corresponding compound treated cell as a percent of the vehicle treated cell activity.
(§8) The EC50 values for compounds tested were calculated by linear regression and were obtained from studies in which varying compound concentrations were used.

[4] = molecular target: T2, human CB2 receptor; experiment: Functional cell-based assay, CB2 receptor mediated change in CRE β-gal expression (agonist / inverse agonist); details: SK-N-MC cells, forskolin
Text: as §1, §2, §3, §4, §5, §6
For cells expressing CRE β-gal and the CB2 receptor, CB2 agonists reduced β-galactosidase activity in a dose-dependent manner and CB2 inverse agonists increased β-galactosidase activity in a dose-dependent manner.
as §7, §8

T1 sequence (P21554 whole entry): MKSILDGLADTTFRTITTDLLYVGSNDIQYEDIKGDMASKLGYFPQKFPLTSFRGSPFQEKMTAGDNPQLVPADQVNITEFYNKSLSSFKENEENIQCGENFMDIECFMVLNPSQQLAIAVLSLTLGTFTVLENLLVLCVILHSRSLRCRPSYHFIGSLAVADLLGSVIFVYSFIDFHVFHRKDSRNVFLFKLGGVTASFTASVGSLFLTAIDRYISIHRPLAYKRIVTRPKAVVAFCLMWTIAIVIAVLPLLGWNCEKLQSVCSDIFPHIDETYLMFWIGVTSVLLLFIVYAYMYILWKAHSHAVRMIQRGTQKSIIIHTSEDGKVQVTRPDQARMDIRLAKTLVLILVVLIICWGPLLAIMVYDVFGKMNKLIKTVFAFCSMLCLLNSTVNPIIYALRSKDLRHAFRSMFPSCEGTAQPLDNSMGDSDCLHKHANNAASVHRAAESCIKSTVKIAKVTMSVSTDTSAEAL

SMILES	IC50 [1]	IC50 [2]	EC50 [3]	EC50 ([4]; agonist, read-out: CB2 Receptor Functional Agonist EC50)	EC50 ([4]; inverse agonist, read-out: CB2 Receptor Functional Inverse Agonist EC50)
CCOC(=O)C1C2CCC(C2)C1NC(=O)c1nn(C2CCCCC2)c2c1CCCC2 (centres unmarked) [compound 28]	850 nM	7.5 nM	2030 nM	330 nM	
CCOC(=O)C1CCc2c(C(=O)NC3C4(C)CCC(C4)C3(C)C)nn(C3CCCCC3)c2C1 (centres unmarked) [compound 70]	125 nM	16 nM	1000 nM		45.9 nM
